Test results reported in ChEMBL document CHEMBL1133828, “Synthesis, crystal structure determination, and biological properties of the DNA-dependent protein kinase (DNA-PK) inhibitor 3-cyano-6-hydrazonomethyl-5-(4-pyridyl)pyrid-[1H]-2-one (OK-1035)” (Bioorg Med Chem Lett, 2001).

Biological target: DNA-dependent protein kinase catalytic subunit (Homo sapiens, UniProt P78527)
Assay: Inhibition of DNA-dependent protein kinase (DNA-PK) of HeLa cell nuclear cell extract
Type: cell-free

DNA-dependent protein kinase catalytic subunit, sequence (P78527 whole entry): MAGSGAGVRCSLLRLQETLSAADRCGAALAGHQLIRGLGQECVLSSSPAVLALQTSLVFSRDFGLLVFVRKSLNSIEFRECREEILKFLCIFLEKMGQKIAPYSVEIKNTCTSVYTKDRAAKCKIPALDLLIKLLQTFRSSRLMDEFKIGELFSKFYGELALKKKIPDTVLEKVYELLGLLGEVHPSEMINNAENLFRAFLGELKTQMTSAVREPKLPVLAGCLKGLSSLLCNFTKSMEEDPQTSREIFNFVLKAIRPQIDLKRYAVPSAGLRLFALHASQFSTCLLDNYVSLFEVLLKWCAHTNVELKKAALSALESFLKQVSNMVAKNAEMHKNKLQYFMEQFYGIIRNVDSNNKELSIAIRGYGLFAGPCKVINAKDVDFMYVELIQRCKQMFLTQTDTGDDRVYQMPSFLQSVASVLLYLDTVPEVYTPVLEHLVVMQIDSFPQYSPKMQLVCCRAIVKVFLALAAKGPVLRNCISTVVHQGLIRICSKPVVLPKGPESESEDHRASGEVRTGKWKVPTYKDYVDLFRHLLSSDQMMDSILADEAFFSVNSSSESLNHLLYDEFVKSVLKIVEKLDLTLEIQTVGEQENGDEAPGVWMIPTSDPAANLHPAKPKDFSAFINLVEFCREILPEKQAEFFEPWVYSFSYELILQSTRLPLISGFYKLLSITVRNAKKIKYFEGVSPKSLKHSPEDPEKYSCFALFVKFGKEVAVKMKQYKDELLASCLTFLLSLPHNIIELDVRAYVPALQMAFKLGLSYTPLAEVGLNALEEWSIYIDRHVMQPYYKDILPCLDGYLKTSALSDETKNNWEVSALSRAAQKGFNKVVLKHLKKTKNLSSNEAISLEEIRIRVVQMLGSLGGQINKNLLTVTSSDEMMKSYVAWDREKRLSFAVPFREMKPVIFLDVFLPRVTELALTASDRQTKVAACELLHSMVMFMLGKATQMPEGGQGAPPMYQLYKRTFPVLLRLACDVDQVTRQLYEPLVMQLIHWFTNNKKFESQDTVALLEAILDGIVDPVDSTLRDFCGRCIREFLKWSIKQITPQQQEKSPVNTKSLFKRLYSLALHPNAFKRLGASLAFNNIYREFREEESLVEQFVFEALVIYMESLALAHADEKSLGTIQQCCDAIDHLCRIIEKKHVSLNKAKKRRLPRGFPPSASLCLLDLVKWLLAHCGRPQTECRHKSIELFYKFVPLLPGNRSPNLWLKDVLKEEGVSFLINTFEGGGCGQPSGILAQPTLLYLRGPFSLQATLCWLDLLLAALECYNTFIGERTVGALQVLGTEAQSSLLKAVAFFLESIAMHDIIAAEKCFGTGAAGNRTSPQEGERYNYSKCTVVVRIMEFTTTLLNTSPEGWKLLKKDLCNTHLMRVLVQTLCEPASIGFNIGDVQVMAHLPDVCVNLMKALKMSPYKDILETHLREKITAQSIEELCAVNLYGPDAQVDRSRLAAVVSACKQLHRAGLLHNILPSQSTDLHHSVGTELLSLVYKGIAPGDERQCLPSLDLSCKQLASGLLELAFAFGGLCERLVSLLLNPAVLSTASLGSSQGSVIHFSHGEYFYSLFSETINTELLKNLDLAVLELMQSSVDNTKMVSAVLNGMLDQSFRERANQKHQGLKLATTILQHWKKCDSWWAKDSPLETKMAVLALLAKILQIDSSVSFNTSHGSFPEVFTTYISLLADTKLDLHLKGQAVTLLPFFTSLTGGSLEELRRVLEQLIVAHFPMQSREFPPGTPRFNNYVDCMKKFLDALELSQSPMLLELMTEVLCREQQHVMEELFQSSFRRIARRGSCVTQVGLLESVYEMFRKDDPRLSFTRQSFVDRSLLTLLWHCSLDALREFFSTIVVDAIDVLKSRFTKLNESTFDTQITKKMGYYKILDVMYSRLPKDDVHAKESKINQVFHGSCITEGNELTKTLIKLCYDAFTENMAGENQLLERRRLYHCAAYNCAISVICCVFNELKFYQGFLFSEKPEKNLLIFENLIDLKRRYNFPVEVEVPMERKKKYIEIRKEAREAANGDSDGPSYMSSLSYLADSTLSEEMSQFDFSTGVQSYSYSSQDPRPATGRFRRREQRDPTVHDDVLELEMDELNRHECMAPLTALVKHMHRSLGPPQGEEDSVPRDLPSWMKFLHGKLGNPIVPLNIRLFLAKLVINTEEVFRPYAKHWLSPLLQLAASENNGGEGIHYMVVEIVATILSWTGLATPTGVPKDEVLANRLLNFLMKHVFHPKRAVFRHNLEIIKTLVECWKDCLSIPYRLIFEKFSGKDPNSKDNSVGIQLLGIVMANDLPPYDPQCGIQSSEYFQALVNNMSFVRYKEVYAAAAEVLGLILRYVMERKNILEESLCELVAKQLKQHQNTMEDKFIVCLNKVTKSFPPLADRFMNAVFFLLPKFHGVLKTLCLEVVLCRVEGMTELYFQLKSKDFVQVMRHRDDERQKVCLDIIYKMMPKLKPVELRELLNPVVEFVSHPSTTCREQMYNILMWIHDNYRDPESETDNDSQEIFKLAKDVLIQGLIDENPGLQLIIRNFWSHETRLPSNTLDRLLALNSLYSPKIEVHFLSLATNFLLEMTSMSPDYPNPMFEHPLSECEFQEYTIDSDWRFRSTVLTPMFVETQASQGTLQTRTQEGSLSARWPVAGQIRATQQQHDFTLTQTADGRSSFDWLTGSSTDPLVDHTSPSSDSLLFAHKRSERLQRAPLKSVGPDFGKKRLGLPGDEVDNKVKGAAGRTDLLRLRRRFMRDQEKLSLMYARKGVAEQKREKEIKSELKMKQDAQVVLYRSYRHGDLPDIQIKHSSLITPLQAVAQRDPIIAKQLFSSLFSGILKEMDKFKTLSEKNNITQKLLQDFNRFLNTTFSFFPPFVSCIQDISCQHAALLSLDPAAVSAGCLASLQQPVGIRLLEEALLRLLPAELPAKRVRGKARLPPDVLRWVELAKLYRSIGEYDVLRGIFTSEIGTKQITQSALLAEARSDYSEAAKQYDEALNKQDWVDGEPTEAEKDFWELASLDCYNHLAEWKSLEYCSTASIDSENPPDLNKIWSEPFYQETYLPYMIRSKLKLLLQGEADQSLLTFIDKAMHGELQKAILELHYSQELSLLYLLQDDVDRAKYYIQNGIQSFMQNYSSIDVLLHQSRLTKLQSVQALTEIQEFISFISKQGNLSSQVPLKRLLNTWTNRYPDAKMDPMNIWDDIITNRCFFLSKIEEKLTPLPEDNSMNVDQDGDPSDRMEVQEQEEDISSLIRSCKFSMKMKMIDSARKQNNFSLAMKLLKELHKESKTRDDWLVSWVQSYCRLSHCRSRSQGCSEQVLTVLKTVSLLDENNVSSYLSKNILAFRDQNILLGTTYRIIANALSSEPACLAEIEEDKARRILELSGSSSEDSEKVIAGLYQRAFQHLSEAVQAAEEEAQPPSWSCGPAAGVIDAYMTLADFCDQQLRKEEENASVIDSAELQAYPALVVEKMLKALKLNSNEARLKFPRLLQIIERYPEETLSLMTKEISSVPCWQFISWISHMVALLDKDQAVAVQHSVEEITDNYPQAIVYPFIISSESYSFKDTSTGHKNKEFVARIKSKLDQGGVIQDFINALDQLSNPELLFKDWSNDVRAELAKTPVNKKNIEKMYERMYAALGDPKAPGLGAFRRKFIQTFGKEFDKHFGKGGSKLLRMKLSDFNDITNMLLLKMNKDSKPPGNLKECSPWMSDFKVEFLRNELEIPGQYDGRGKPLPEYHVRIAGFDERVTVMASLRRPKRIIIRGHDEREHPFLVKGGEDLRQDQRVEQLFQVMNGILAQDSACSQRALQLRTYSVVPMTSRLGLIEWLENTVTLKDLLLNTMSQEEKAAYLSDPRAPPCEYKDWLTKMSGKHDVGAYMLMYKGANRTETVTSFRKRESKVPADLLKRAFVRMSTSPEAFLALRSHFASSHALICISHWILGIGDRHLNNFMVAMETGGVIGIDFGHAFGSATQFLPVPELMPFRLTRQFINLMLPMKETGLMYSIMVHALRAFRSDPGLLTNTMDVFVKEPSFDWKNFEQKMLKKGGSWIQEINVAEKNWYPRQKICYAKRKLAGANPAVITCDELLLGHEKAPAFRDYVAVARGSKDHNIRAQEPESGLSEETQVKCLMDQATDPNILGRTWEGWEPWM

| Structure (SMILES) | IC50 |
| --- | --- |
| N#Cc1cc(-c2ccncc2)c(CO)nc1O | > 500 µM |
| N#Cc1cc(-c2ccncc2)c(/C=N/N)nc1O | 100 µM |
| COc1ccc(COCc2nc(O)c(C#N)cc2-c2ccncc2)cc1 | > 500 µM |
| O=c1cc(N2CCOCC2)oc2c(-c3ccccc3)cccc12 [LY-294002] | 1.4 µM |
